Read-outs that look alike come from different tables or passages of the source. Each block holds one compound with its values, some of them ahead of it.
What was measured:
CYP1A2 [1] = conditions: CYP1A2, human; ref Table 1; cited from earlier work
CYP3A4 [2] = conditions: CYP3A4, human in vivo reference classification (Table 11); cited from earlier work
CYP2B6 [3] = assay: CYP2B6 enzyme induction assay in cryopreserved primary human hepatocytes (PHH); assay type: in vitro ADME; conditions: PHH;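 further: code 1 means positive inducer and 0 means non-inducer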
CYP1A2 [4] = assay: CYP1A2 enzyme induction assay in cryopreserved primary human hepatocytes (PHH); assay type: in vitro ADME; conditions: for Assigned classification CYP1A2: PHH;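 on Assigned classification CYP1A2: code 1 means positive inducer and 0 means non-inducer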
CYP3A4 [5] = assay: CYP3A4 enzyme induction assay in cryopreserved HepaRG cells (midazolam probe, LC/MS); assay type: in vitro ADME, human; conditions: for Assigned classification CYP3A4: HepaRG; on Assigned classification CYP3A4: key: 1=Positive=inducer; 0=Negative=non-inducer
CYP3A4 [6] = assay: CYP3A4 enzyme induction assay in cryopreserved primary human hepatocytes (PHH); conditions: for Assigned classification CYP3A4: PHH
[7] = cited from earlier work
CYP1A2 [8] = assay: CYP1A2 enzyme induction assay in cryopreserved HepaRG cells (phenacetin probe, LC/MS); assay type: in vitro ADME, human; conditions: for Assigned classification CYP1A2: HepaRG; on Assigned classification CYP1A2: key: 1=Positive=inducer; 0=Negative=non-inducer
CYP2B6 [9] = assay: CYP2B6 enzyme induction assay in cryopreserved HepaRG cells (bupropion probe, LC/MS); assay type: in vitro ADME, human; conditions: HepaRG; further: key: 1=Positive=inducer; 0=Negative=non-inducer
[10] = human in vivo plasma concentration, normal dose
[11] = human in vivo, normal dose (Table 10)

Assigned classification CYP2B6 (CYP2B6 [3]; Lab 1, batch 0 6 A): 0 | Assigned classification CYP2B6 (CYP2B6 [3]; Lab 1, batch 4 0 8): 0 | Assigned classification CYP2B6 (CYP2B6 [3]; Lab 1, batch 8 0 8): 0 | Assigned classification CYP2B6 (CYP2B6 [3]; Lab 2, batch 0 6 A): 0 | Assigned classification CYP2B6 (CYP2B6 [3]; Lab 2, batch 4 0 8): 0 | Assigned classification CYP2B6 (CYP2B6 [3]; Lab 2, batch 8 0 8): 0 | Assigned classification CYP2B6 (CYP2B6 [3]; Lab 3, batch 0 6 A): 1 | Assigned classification CYP2B6 (CYP2B6 [3]; Lab 3, batch 4 0 8): 0 | Assigned classification CYP2B6 (CYP2B6 [3]; Lab 3, batch 8 0 8): 0 | Prediction in vivo inducer (CYP1A2 [4]; CYP1A2, PHH, Cmax/F2 >0.5 criterion): No | Induction in vitro (CYP1A2 [4]; CYP1A2, PHH, positive in one donor in each of the three laboratories): No | Assigned classification CYP1A2 (CYP1A2 [4]; Lab 1, batch 0 6 A): 0 | Assigned classification CYP1A2 (CYP1A2 [4]; Lab 1, batch 4 0 8): 1 | Assigned classification CYP1A2 (CYP1A2 [4]; Lab 1, batch 8 0 8): 1 | Assigned classification CYP1A2 (CYP1A2 [4]; Lab 2, batch 0 6 A): 0 | Assigned classification CYP1A2 (CYP1A2 [4]; Lab 2, batch 4 0 8): 0 | Assigned classification CYP1A2 (CYP1A2 [4]; Lab 2, batch 8 0 8): 0 | Assigned classification CYP1A2 (CYP1A2 [4]; Lab 3, batch 0 6 A): 1 | Assigned classification CYP1A2 (CYP1A2 [4]; Lab 3, batch 4 0 8): 0 | Assigned classification CYP1A2 (CYP1A2 [4]; Lab 3, batch 8 0 8): 0 | Induction in vitro (CYP3A4 [5]; CYP3A4, HepaRG cells): No | Prediction in vivo inducer (CYP3A4 [5]; CYP3A4, HepaRG cells): No | Assigned classification CYP3A4 (CYP3A4 [5]; Lab 1, batch 20): 0 | Assigned classification CYP3A4 (CYP3A4 [5]; Lab 1, batch 35): 0 | Assigned classification CYP3A4 (CYP3A4 [5]; Lab 1, batch 36): 0 | Assigned classification CYP3A4 (CYP3A4 [5]; Lab 2, batch 20): 0 | Assigned classification CYP3A4 (CYP3A4 [5]; Lab 2, batch 35): 0 | Assigned classification CYP3A4 (CYP3A4 [5]; Lab 2, batch 36): 0 | Assigned classification CYP3A4 (CYP3A4 [5]; Lab 3, batch 20): 0 | Assigned classification CYP3A4 (CYP3A4 [5]; Lab 3, batch 35): 0 | Assigned classification CYP3A4 (CYP3A4 [5]; Lab 3, batch 36): 0 | Induction in vitro (CYP3A4 [6]; CYP3A4, PHH): No | Prediction in vivo inducer (CYP3A4 [6]; CYP3A4, PHH): No | Prediction in vivo inducer (CYP3A4 [6]; CYP3A4, PHH, Cmax/F2 >0.5 criterion): predicted to be a non-inducer in vivo | Assigned classification CYP3A4 (CYP3A4 [6]; Lab 1, batch 0 6 A): 0 | Assigned classification CYP3A4 (CYP3A4 [6]; Lab 1, batch 4 0 8): 0 | Assigned classification CYP3A4 (CYP3A4 [6]; Lab 1, batch 8 0 8): 0 | Assigned classification CYP3A4 (CYP3A4 [6]; Lab 2, batch 0 6 A): 1 | Assigned classification CYP3A4 (CYP3A4 [6]; Lab 2, batch 4 0 8): 0 | Assigned classification CYP3A4 (CYP3A4 [6]; Lab 2, batch 8 0 8): 0 | Assigned classification CYP3A4 (CYP3A4 [6]; Lab 3, batch 0 6 A): 1 | Assigned classification CYP3A4 (CYP3A4 [6]; Lab 3, batch 4 0 8): 0 | Assigned classification CYP3A4 (CYP3A4 [6]; Lab 3, batch 8 0 8): 0 | Prediction in vivo inducer (CYP1A2 [8]; CYP1A2, HepaRG cells, Cmax/F2 >0.5 criterion): No | Induction in vitro (CYP1A2 [8]; CYP1A2, HepaRG cells, positive in one batch in each of the three laboratories): No | Assigned classification CYP1A2 (CYP1A2 [8]; Lab 1, batch 20): 0 | Assigned classification CYP1A2 (CYP1A2 [8]; Lab 1, batch 35): 0 | Assigned classification CYP1A2 (CYP1A2 [8]; Lab 1, batch 36): 0 | Assigned classification CYP1A2 (CYP1A2 [8]; Lab 2, batch 20): 0 | Assigned classification CYP1A2 (CYP1A2 [8]; Lab 2, batch 35): 1 | Assigned classification CYP1A2 (CYP1A2 [8]; Lab 2, batch 36): 0 | Assigned classification CYP1A2 (CYP1A2 [8]; Lab 3, batch 20): 0 | Assigned classification CYP1A2 (CYP1A2 [8]; Lab 3, batch 35): 0 | Assigned classification CYP1A2 (CYP1A2 [8]; Lab 3, batch 36): 0 | Assigned classification CYP2B6 (CYP2B6 [9]; Lab 1, batch 20): 0 | Assigned classification CYP2B6 (CYP2B6 [9]; Lab 1, batch 35): 0 | Assigned classification CYP2B6 (CYP2B6 [9]; Lab 1, batch 36): 0 | Assigned classification CYP2B6 (CYP2B6 [9]; Lab 2, batch 20): 0 | Assigned classification CYP2B6 (CYP2B6 [9]; Lab 2, batch 35): 0 | Assigned classification CYP2B6 (CYP2B6 [9]; Lab 2, batch 36): 0 | Assigned classification CYP2B6 (CYP2B6 [9]; Lab 3, batch 20): 0 | Assigned classification CYP2B6 (CYP2B6 [9]; Lab 3, batch 35): 0 | Assigned classification CYP2B6 (CYP2B6 [9]; Lab 3, batch 36): 0
SMILES: COCCc1ccc(OCC(O)CNC(C)C)cc1 (stereo not drawn) [Metoprolol]
Induction in vivo (CYP1A2 [1]): No | Induction in vivo (CYP3A4 [2]): No | Cmax [7, 10]: 140 to 380 nM | Cmax [7, 11]: 140 to 380 nM

SMILES: C[C@@H]1CC[C@H]2[C@@H](C)C(=O)O[C@@H]3O[C@@]4(C)CC[C@@H]1[C@]32OO4 [Artemisinin]
Cmax [7, 10]: 1000 to 2000 nM | Cmax [7, 11]: 1000 to 2000 nM
